{"source": "patent US11628179B2", "about": "“Compounds for treating and preventing extracellular histone mediated pathologies” (priority 2017, dated 2023)", "key": {"dog plasma proteins": {"test_system": "dog plasma proteins", "assay": "Plasma protein binding by ultrafiltration, dog plasma", "format": "in vitro ADME", "conditions": "for Concentration of mCBS, 200 ng/mL Post-filter / Concentration of mCBS, 200 ng/mL Pre-filter / Concentration of mCBS, 2000 ng/mL Post-filter / Concentration of mCBS, 2000 ng/mL Pre-filter: replicates and Mean", "method": "(§1) Protein binding was assessed by an ultrafiltration method using Centrifree® Ultrafiltration Devices with a 30000 dalton molecular weight cut-off point. Briefly, known concentrations of mCBS (as free base) were added to human, rat and dog plasma samples and incubated for 20 min at 37° C. The samples were then subject to ultrafiltration to separate protein bound and unbound drug.\n(§2) mCBS stock solutions (10 μL) were spiked into solutions of each test matrix (490 μL) as listed below in Table 9 to have a final concentration of 200 ng/mL & 2000 ng/m L.\n(§3) Spiked samples were then incubated at 37° C. for 20 minutes in a water bath. Aliquots of the samples from each test group (500 μL) were transferred to the ultrafiltration devices (n=3) and centrifuged for 20 minutes at 1000 g. After centrifugation, aliquots of the ultrafiltrates (50 μL) were transferred to separate test tubes for extraction, alongside duplicate aliquots of the samples prior to ultrafiltration from each test group.\n(§4) For quantification of samples before ultrafiltration, samples were analysed against a freshly prepared standard curve in plasma."}, "human plasma proteins": {"test_system": "human plasma proteins", "assay": "Plasma protein binding by ultrafiltration, human plasma", "format": "in vitro ADME", "conditions": "for Concentration of mCBS, 200 ng/mL Post-filter / Concentration of mCBS, 200 ng/mL Pre-filter / Concentration of mCBS, 2000 ng/mL Post-filter / Concentration of mCBS, 2000 ng/mL Pre-filter: replicates and Mean", "method": "as §1, §2, §3, §4"}, "C57BI/6 mice": {"test_system": "C57BI/6 mice", "assay": "EAE model of multiple sclerosis", "format": "in vivo, mouse", "conditions": "50 mg/kg i.p. daily day 0-9, 35 day window", "method": "EAE Model of Multiple Sclerosis. EAE was induced in 8-12 week old C57BI/6 mice by subcutaneous immunisation with 115 μg/mouse myelin oligodendrocyte glycoprotein (MOG35-55 genscript) in Complete Freund's Adjuvant (Sigma) on day 1. 300 ng/mouse Pertussis toxin (List Biological Laboratories) in PBS was injected intra peritoneal (i.p.) on days 0 and 2. 50 mg/kg mCBS in PBS or PBS alone (vehicle) was given i.p. daily for day 0-9. Mice were monitored daily for signs of disease and were scored on a scale of 0-5 based on physical manifestations of disease. Mice were scored as follows: 0, clinically normal; 1, flaccid tail and/or ataxia; 2, hind limb weakness; 3, hind limb paralysis; 4, hind and front limb paralysis; and 5, moribund."}, "Wistar rats": {"test_system": "Wistar rats", "assay": "Rat caecal ligation and puncture (CLP), moderate sepsis", "format": "in vivo", "method": "Male Wistar rats (n=8/group) underwent laparotomy, caecal ligation and puncture (CLP) to stimulate faecal peritonitis and subsequent sepsis, then treated with saline (Control CLP) or 50 mg/kg of mCBS at 0, 5 and 10 hr post-op via i.p. injection and monitored for 20 hr. Once rats reached a state of severe morbidity they were humanely euthanased at which point a death was recorded.\nRat caecal ligation and puncture (CLP) assay for sepsis. The CLP assay was performed in male Wistar rats as previously described (see Hubbard, W. J. et al. Cecal ligation and puncture. Shock 24 Suppl 1, 52-57 (2005).). Test compounds (50 mg kg^−1) dissolved in saline or an equivalent volume of saline only (Control cohort) were administered i.p. 5 min pre-CLP and 5, 10 and 15 h post-op until cessation of the experiment at 20 h. Sham-CLP rats underwent the same procedure, however, the caecum was not ligated or punctured and these rats received saline at the same times as above. At the conclusion of the experimental time period (20 h) or when morbidity required ethical euthanasia, the rats were anaesthetised and blood was collected via cardiac puncture into EDTA for subsequent analysis of liver (ALT) and kidney (creatinine) function by the Department of Pathology, The Canberra Hospital. The propensity for clots to form within the blood samples of the saline treated control CLP animals (despite the presence of EDTA) prevented successful analysis of plasma samples from all animals."}, "mice": {"test_system": "mice", "assay": "In-vivo histone toxicity assay, organ damage markers at 4 hr", "parameters": "species or system mouse", "conditions": "6.25, 25 and 100 mg/kg i.p. 10 min prior to histones 50 mg/kg i.v.; blood at 4 hr"}, "rat plasma proteins": {"test_system": "rat plasma proteins", "assay": "Plasma protein binding by ultrafiltration, rat plasma", "format": "in vitro ADME", "conditions": "for Concentration of mCBS, 200 ng/mL Post-filter / Concentration of mCBS, 200 ng/mL Pre-filter / Concentration of mCBS, 2000 ng/mL Post-filter / Concentration of mCBS, 2000 ng/mL Pre-filter: replicates and Mean", "method": "as §1, §2, §3, §4"}, "[1]": {"assay": "Stability of mCBS vs CBS in formulated clinical material (HPLC)", "format": "physicochemical", "conditions": "formulated clinical material in phosphate buffer, 5±3° C., 25±2° C./60% RH, 40±2° C./75% RH", "method": "Stability studies were carried out at 5±3° C., 25±2° C./60% RH and 40±2° C./75% RH ° C. conditions. Levels of both mCBS and cellobiose sulfate (CBS) were tracked in formulated clinical material (i.e. mCBS in phosphate buffer) via HPLC."}, "human platelets": {"test_system": "human platelets", "assay": "Histone-induced platelet aggregation", "format": "cell-based", "conditions": "compounds added prior to histones 150 μg/mL"}, "Sprague Dawley rats": {"test_system": "Sprague Dawley rats", "method": "This study examined acute toxicity from single IV administration of mCBS in rats with doses up to 1000 mg/kg.\nThe acute toxicity of β-O-methyl cellobioside sulfate (mCBS) was assessed in Sprague Dawley rats following intravenous administration of a single bolus dose. A total of five groups of n=3 adult female rats were treated with 10, 30, 100, 300 and 1000 mg/kg doses of mCBS test item in the form of the sodium salt (mCBS.Na) in this dose range finding study. […] The rats were then observed for 7 days prior to termination without necropsy."}}, "note": "Several values for one entry are separate records, joined by “and”; a condition that tells them apart may be missing. Equal values may be shown once. Where a name gives a salt, the structure may show the parent alone."}
{"compound": "CO[C@@H]1O[C@H](COS(=O)(=O)O)[C@@H](O[C@@H]2O[C@H](COS(=O)(=O)O)[C@@H](OS(=O)(=O)O)[C@H](OS(=O)(=O)O)[C@H]2OS(=O)(=O)O)[C@H](OS(=O)(=O)O)[C@H]1OS(=O)(=O)O", "note": "[mCBS, β-O-methyl cellobioside sulfate]", "values": [{"measurement": "Plasma protein binding", "setting": "dog plasma proteins; 200 ng/mL", "value": 19.6, "unit": "%"}, {"measurement": "Plasma protein binding", "setting": "dog plasma proteins; 2000 ng/mL", "value": 21.0, "unit": "%"}, {"measurement": "Concentration of mCBS, 200 ng/mL Post-filter", "setting": "dog plasma proteins", "value": "194 ng/mL and 169 ng/mL and 186 ng/mL"}, {"measurement": "Concentration of mCBS, 200 ng/mL Pre-filter", "setting": "dog plasma proteins", "value": "230 ng/mL and 225 ng/mL"}, {"measurement": "Concentration of mCBS, 2000 ng/mL Post-filter", "setting": "dog plasma proteins", "value": "1970 ng/mL and 1840 ng/mL and 1900 ng/mL"}, {"measurement": "Concentration of mCBS, 2000 ng/mL Pre-filter", "setting": "dog plasma proteins", "value": "2490 ng/mL and 2330 ng/mL"}, {"measurement": "Concentration of mCBS, 200 ng/mL Post-filter", "setting": "dog plasma proteins; mean", "value": 183, "unit": "ng/mL"}, {"measurement": "Concentration of mCBS, 200 ng/mL Pre-filter", "setting": "dog plasma proteins; mean", "value": 228, "unit": "ng/mL"}, {"measurement": "Concentration of mCBS, 2000 ng/mL Post-filter", "setting": "dog plasma proteins; mean", "value": 1903, "unit": "ng/mL"}, {"measurement": "Concentration of mCBS, 2000 ng/mL Pre-filter", "setting": "dog plasma proteins; mean", "value": 2410, "unit": "ng/mL"}, {"measurement": "Plasma protein binding (%)", "setting": "human plasma proteins; 200 ng/mL", "value": 22.3, "unit": "%"}, {"measurement": "Plasma protein binding (%)", "setting": "human plasma proteins; 2000 ng/mL", "value": 15.8, "unit": "%"}, {"measurement": "Concentration of mCBS, 200 ng/mL Post-filter", "setting": "human plasma proteins", "value": "181 ng/mL and 150 ng/mL and 169 ng/mL"}, {"measurement": "Concentration of mCBS, 200 ng/mL Pre-filter", "setting": "human plasma proteins", "value": "217 ng/mL and 213 ng/mL"}, {"measurement": "Concentration of mCBS, 2000 ng/mL Post-filter", "setting": "human plasma proteins", "value": "1860 ng/mL and 1750 ng/mL and 1770 ng/mL"}, {"measurement": "Concentration of mCBS, 2000 ng/mL Pre-filter", "setting": "human plasma proteins", "value": "2190 ng/mL and 2070 ng/mL"}, {"measurement": "Concentration of mCBS, 200 ng/mL Post-filter", "setting": "human plasma proteins; mean", "value": 167, "unit": "ng/mL"}, {"measurement": "Concentration of mCBS, 200 ng/mL Pre-filter", "setting": "human plasma proteins; mean", "value": 215, "unit": "ng/mL"}, {"measurement": "Concentration of mCBS, 2000 ng/mL Post-filter", "setting": "human plasma proteins; mean", "value": 1793, "unit": "ng/mL"}, {"measurement": "Concentration of mCBS, 2000 ng/mL Pre-filter", "setting": "human plasma proteins; mean", "value": 2130, "unit": "ng/mL"}, {"measurement": "protection from EAE development", "setting": "C57BI/6 mice", "value": "substantial protection"}, {"measurement": "survival rate", "setting": "Wistar rats; 50 mg/kg i.p. at 0, 5 and 10 hr post-op, monitored 20 hr", "value": 100, "unit": "%"}, {"measurement": "circulating LDH levels", "setting": "Wistar rats; 50 mg/kg i.p., Control CLP 1.1±0.2, p=0.03", "value": "0.6±0.1", "unit": "U/L×10^3"}, {"measurement": "ALT or creatinine levels between the groups", "setting": "Wistar rats; mCBS vs Control CLP", "value": "No differences"}, {"measurement": "protection from histone-induced organ damage (LDH, ALT, creatinine)", "setting": "mice", "value": "protects animals from histone-mediated injury"}, {"measurement": "Plasma protein binding", "setting": "rat plasma proteins; 200 ng/mL", "value": 19.4, "unit": "%"}, {"measurement": "Plasma protein binding", "setting": "rat plasma proteins; 2000 ng/mL", "value": 19.8, "unit": "%"}, {"measurement": "Concentration of mCBS, 200 ng/mL Post-filter", "setting": "rat plasma proteins", "value": "164 ng/mL and 177 ng/mL and 167 ng/mL"}, {"measurement": "Concentration of mCBS, 200 ng/mL Pre-filter", "setting": "rat plasma proteins", "value": "205 ng/mL and 217 ng/mL"}, {"measurement": "Concentration of mCBS, 2000 ng/mL Post-filter", "setting": "rat plasma proteins", "value": "1710 ng/mL and 1740 ng/mL and 1690 ng/mL"}, {"measurement": "Concentration of mCBS, 2000 ng/mL Pre-filter", "setting": "rat plasma proteins", "value": "2090 ng/mL and 2180 ng/mL"}, {"measurement": "Concentration of mCBS, 200 ng/mL Post-filter", "setting": "rat plasma proteins; mean", "value": 170, "unit": "ng/mL"}, {"measurement": "Concentration of mCBS, 200 ng/mL Pre-filter", "setting": "rat plasma proteins; mean", "value": 211, "unit": "ng/mL"}, {"measurement": "Concentration of mCBS, 2000 ng/mL Post-filter", "setting": "rat plasma proteins; mean", "value": 1713, "unit": "ng/mL"}, {"measurement": "Concentration of mCBS, 2000 ng/mL Pre-filter", "setting": "rat plasma proteins; mean", "value": 2135, "unit": "ng/mL"}, {"measurement": "level relative to starting amount (T=0) over time", "setting": "[1]", "value": "very stable"}, {"measurement": "histone-induced platelet aggregation", "setting": "human platelets", "value": "significantly reduced"}, {"measurement": "MTD estimate from potency assessment, free base", "setting": "Sprague Dawley rats; IV bolus single and 7-day studies, corrected for potency", "value": "~600", "unit": "mg/kg"}, {"measurement": "Maximum Tolerated Dose (MTD), as free base", "setting": "Sprague Dawley rats; single IV bolus, corrected for purity and sodium content", "value": 815, "unit": "mg/kg"}]}
